Earlier results on one substance are cited in US20080057142A1, “COMPOSITIONS AND METHODS FOR WEIGHT-LOSS AND WEIGHT-LOSS MAINTENANCE IN DAYTIME AND NIGHTTIME FORMULATION” (priority 2005, published 2008).

The conditions of this data set: EGCG, but not related catechins.

Turning to epigallocatechin-3-gallate [EGCG], the body weight entry is given as “reduced body weight” and the food intake result is “significantly reduced food intake”.
